{"source": "patent US20220105183A1", "about": "“MICRO-NANO STRUCTURE FORMED BY SELF-ASSEMBLING ORGANIC SMALL MOLECULE COMPOUND AND USE THEREOF” (Qingdao University of Science and Technology, priority 2018, published 2022)", "format_in_all_cases": "physicochemical", "key": {"[1]": {"assay": "UV absorption, fluorescence emission and quantum yield in solutions of different polarities", "procedure": "The Compound II-1 of the present invention was prepared as a 2 mM storage solution in DMSO, and then 10 μL was added to 2 mL of solutions with different polarities (including water, dimethyl sulfoxide, N,N-dimethylformamide, methanol, ethanol, acetone, methylene chloride, acetonitrile), a UV spectrophotometer was used to test the UV absorption and to find the maximum absorption wavelength. The molar extinction coefficient of II-1 in solutions of different polarities was calculated from the ultraviolet absorption spectrum. Excited by the maximum absorption wavelength, the fluorescence emission spectrum was tested by a fluorescence spectrometer, the data was plotted with origin and the integral area was calculated. The fluorescence quantum yield φx, φx=φs(Fx/Fs)(As/Ax)(λexs/λexx)(nx/ns)^2, was calculated from the obtained data to obtain the characteristic parameters of Compound II-1 in solutions of different polarities (Table 3)."}, "[2]": {"assay": "Photothermal effect in vitro under 808 nm laser irradiation", "conditions": "for light-to-heat conversion efficiency: 808 nm laser; for temperature raised by / temperature reached: 808 nm laser 5 minutes; for temperature reached: from room temperature 30° C.", "procedure": "A total of 4 groups of samples, 3 mL was taken and added to a cuvette respectively, and the lid was sealed.\nThe sample No. 2 was 10 μM II-1, and the specific preparation method is 3 mL deionized water plus 15 μL II-1 stock solution (2 mM, dissolved in DMSO);\nThe sample No. 3 was 20 μM II-1, and the specific preparation method was that 3 mL deionized water was added 30 μL II-1 stock solution (2 mM, dissolved in DMSO);\nThe sample No. 4 was 40 μM II-1, and the specific preparation method was that 3 mL deionized water was added 60 μL II-1 stock solution (2 mM, dissolved in DMSO).\nEach sample was irradiated with an 808 nm laser for 5 minutes, and the temperature data was recorded every 5 seconds with a thermal imager, and the temperature corresponding to the time was plotted in origin, as shown in the left figure of FIG. 8. […] The temperature of sample No. 2 increased from room temperature 30° C. to 54° C., and the temperature was raised by 24° C. The temperature of sample No. 3 increased from room temperature 30° C. to 62° C., and the temperature was raised by 32° C. The temperature of sample No. 4 increased from room temperature 30° C. to 77° C., and the temperature was raised by 47° C.\nUsing a method similar to Example 8, 10 μM, 20 μM and 40 μM samples of II-16, II-17 and II-18 were prepared, respectively, they were irradiated under an 808 nm (2.6 W/cm-2) laser for 10 minutes. 40 μM II-16 to 18 samples can rise by 40° C., 36° C. and 18° C. respectively within 10 minutes under laser irradiation.\nUsing a method similar to that in Example 8, three samples of 20 μM of 1-16, II-17 and II-18 in water were irradiated with 808 nm (2.6 W/cm-2) laser for 10 minutes, and the light-to-heat conversion efficiency calculation result thereof were shown in FIG. 10. […] And II-18 not only has poor light-heat effect, but also has low light-heat conversion efficiency, only 12.9%."}, "[3]": {"assay": "DLS particle size / self-assembly of the compounds in aqueous solution", "conditions": "micro-nano structure, 20 μM working solution in deionized water", "procedure": "The term “particle size” refers to the size of particles, also known as “granularity” or “diameter”. When a certain physical characteristic or physical behavior of the measured particle is closest to a homogeneous sphere (or combination) of a certain diameter, the diameter (or combination) of the sphere is taken as the equivalent particle size of the measured particle. The particle size parameter of the micro-nano structure of the present invention is measured by the principle of dynamic light scattering (DLS), specifically measured by a laser particle size analyzer.\nTaking the self-assembled micro-nano structure of Compound II-1 as an example, II-1 was dissolved in DMSO (also can be an organic solvent such as ethanol) to prepare a 2 mM storage solution, and a small amount of storage solution was added to deionized water to prepare 20 μM working solution. Took 10 μL and dropped it on copper mesh, observed and analyzed under transmission electron microscope (TEM), cryo-transmission electron microscope. Took 10 μL and dropped it on mica plate, observed and analyzed under atomic force microscope (AFM). In FIGS. 5, A, B, C and D were TEM photographs, cryo-transmission electron microscope photographs, AFM photographs, and AFM analysis data, respectively. According to the photographs and data, II-1 was self-assembled into nanosheets with a diameter of 40-70 nm and a thickness of 3.7-3.9 nm. […]\nAmong them, the particle size test results of II-12 to II-15 in aqueous solution are shown in FIG. 6, and the results of dynamic light scattering DLS of II-16 to 1-18 are shown in FIG. 7)."}, "[4]": {"conditions": "sample No. 2, 10 μM in deionized water"}, "[5]": {"conditions": "sample No. 3, 20 μM in deionized water"}, "[6]": {"conditions": "sample No. 4, 40 μM in deionized water"}}, "data": [{"smiles": "CCN1C(=CC=C2CCCC(C=CC3=C(C#N)C(=C(C#N)C#N)OC3(C)C)=C2Cl)C(C)(C)c2ccccc21", "note": "[II-1]", "values": [{"measurement": "Φ (fluorescence quantum yield)", "setting": "[1]; N,N-dimethylformamide", "result": 0.19, "unit": "%"}, {"measurement": "ε*10^4", "setting": "[1]; N,N-dimethylformamide", "result": 7.92, "unit": "M^−1cm^−1"}, {"measurement": "λem", "setting": "[1]; N,N-dimethylformamide", "result": 853, "unit": "nm"}, {"measurement": "λmax", "setting": "[1]; N,N-dimethylformamide", "result": 844, "unit": "nm"}, {"measurement": "Φ (fluorescence quantum yield)", "setting": "[1]; acetone", "result": 0.29, "unit": "%"}, {"measurement": "ε*10^4", "setting": "[1]; acetone", "result": 8.91, "unit": "M^−1cm^−1"}, {"measurement": "λem", "setting": "[1]; acetone", "result": 851, "unit": "nm"}, {"measurement": "λmax", "setting": "[1]; acetone", "result": 832, "unit": "nm"}, {"measurement": "Φ (fluorescence quantum yield)", "setting": "[1]; acetonitrile", "result": 0.35, "unit": "%"}, {"measurement": "ε*10^4", "setting": "[1]; acetonitrile", "result": 9.15, "unit": "M^−1cm^−1"}, {"measurement": "λem", "setting": "[1]; acetonitrile", "result": 850, "unit": "nm"}, {"measurement": "λmax", "setting": "[1]; acetonitrile", "result": 832, "unit": "nm"}, {"measurement": "Φ (fluorescence quantum yield)", "setting": "[1]; dichloromethane", "result": 0.35, "unit": "%"}, {"measurement": "ε*10^4", "setting": "[1]; dichloromethane", "result": 8.55, "unit": "M^−1cm^−1"}, {"measurement": "λem", "setting": "[1]; dichloromethane", "result": 850, "unit": "nm"}, {"measurement": "λmax", "setting": "[1]; dichloromethane", "result": 834, "unit": "nm"}, {"measurement": "Φ (fluorescence quantum yield)", "setting": "[1]; dimethyl sulfoxide", "result": 0.12, "unit": "%"}, {"measurement": "ε*10^4", "setting": "[1]; dimethyl sulfoxide", "result": 10.24, "unit": "M^−1cm^−1"}, {"measurement": "λem", "setting": "[1]; dimethyl sulfoxide", "result": 854, "unit": "nm"}, {"measurement": "λmax", "setting": "[1]; dimethyl sulfoxide", "result": 848, "unit": "nm"}, {"measurement": "Φ (fluorescence quantum yield)", "setting": "[1]; ethanol", "result": 0.25, "unit": "%"}, {"measurement": "ε*10^4", "setting": "[1]; ethanol", "result": 10.74, "unit": "M^−1cm^−1"}, {"measurement": "λem", "setting": "[1]; ethanol", "result": 851, "unit": "nm"}, {"measurement": "λmax", "setting": "[1]; ethanol", "result": 828, "unit": "nm"}, {"measurement": "Φ (fluorescence quantum yield)", "setting": "[1]; methanol", "result": 0.19, "unit": "%"}, {"measurement": "ε*10^4", "setting": "[1]; methanol", "result": 11.24, "unit": "M^−1cm^−1"}, {"measurement": "λem", "setting": "[1]; methanol", "result": 850, "unit": "nm"}, {"measurement": "λmax", "setting": "[1]; methanol", "result": 830, "unit": "nm"}, {"measurement": "Φ (fluorescence quantum yield)", "setting": "[1]; water", "result": 0.11, "unit": "%"}, {"measurement": "ε*10^4", "setting": "[1]; water", "result": 2.76, "unit": "M^−1cm^−1"}, {"measurement": "λem", "setting": "[1]; water", "result": 840, "unit": "nm"}, {"measurement": "λmax", "setting": "[1]; water", "result": 730, "unit": "nm"}, {"measurement": "light-to-heat conversion efficiency", "setting": "[2]; [4]", "result": 60.4, "unit": "%"}, {"measurement": "temperature raised by", "setting": "[2]; [4]", "result": 24, "unit": "°C"}, {"measurement": "temperature reached", "setting": "[2]; sample No. 2, 10 μM", "result": 54, "unit": "°C"}, {"measurement": "light-to-heat conversion efficiency", "setting": "[2]; [5]", "result": 61, "unit": "%"}, {"measurement": "temperature raised by", "setting": "[2]; [5]", "result": 32, "unit": "°C"}, {"measurement": "temperature reached", "setting": "[2]; sample No. 3, 20 μM", "result": 62, "unit": "°C"}, {"measurement": "light-to-heat conversion efficiency", "setting": "[2]; [6]", "result": 60, "unit": "%"}, {"measurement": "temperature raised by", "setting": "[2]; [6]", "result": 47, "unit": "°C"}, {"measurement": "temperature reached", "setting": "[2]; sample No. 4, 40 μM", "result": 77, "unit": "°C"}, {"measurement": "DLS particle size peak (nm)", "setting": "[3]", "result": 104, "unit": "nm"}, {"measurement": "DLS particle size range (nm)", "setting": "[3]", "result": "33-266 nm"}]}]}
